Results reported in PubChem BioAssay (NCI).
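Test compounds were applied to cells in 96-well plates for 48 hours at 5 doses. The concentration for 50% growth inhibition is given as GI50. TGI: total growth inhibition.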

Assays:
Assay in all cases: NCI anticancer screen, dose series, 48 h
[1] = tested on: ACHN renal
[2] = tested on: COLO 205 colon
[3] = tested on: HCT-116 colon
[4] = tested on: HL-60(TB) leukemia
[5] = tested on: HOP-92 NSCLC
[6] = tested on: OVCAR-4 ovarian
[7] = tested on: RPMI-8226 leukemia
[8] = tested on: SF-295 CNS
[9] = tested on: UO-31 renal
[10] = tested on: DU-145 prostate

Structure (SMILES)	TGI [1]	TGI [2]	TGI [3]	TGI [4]	TGI [5]	TGI [6]	TGI [7]	TGI [8]	TGI [9]	GI50 [1]	GI50 [2]	GI50 [3]	GI50 [4]	GI50 [6]	GI50 [7]	GI50 [8]	GI50 [9]	TGI [10]
COc1cc(OC(=O)c2c(O)cc(O)c(O)c2C)cc(C)c1C(=O)Oc1cc(C)c(C(=O)O)c(O)c1	> 100 µM	> 100 µM	> 100 µM	> 100 µM	> 100 µM	> 100 µM	> 100 µM	> 100 µM	> 100 µM									
COC(=O)C1=NC(=S)NC(c2ccccc2)C1c1nc2ccccc2s1 (stereo not drawn)	> 100 µM	> 100 µM	> 100 µM	> 100 µM	> 100 µM	> 100 µM		> 100 µM	> 100 µM									
CC(=O)[CH-]C(=O)c1ccccc1.CC(=O)[CH-]C(=O)c1ccccc1.O=C([O-])c1ccc([O-])cc1.O=C([O-])c1ccc([O-])cc1.[Ti+4]	> 100 µM	40.1 µM	> 100 µM	67.6 µM		> 100 µM	62.8 µM	> 100 µM	76.4 µM	75 µM	20.6 µM	41.4 µM	20.5 µM	57.1 µM	20.7 µM	41.6 µM	23.1 µM	
O=C(O)CP(=S)(S)c1ccccc1 (stereo not drawn)	> 100 µM	> 100 µM		> 100 µM	> 100 µM	> 100 µM		> 100 µM	> 100 µM									
CN(C)P(=O)(/C(N)=N/Nc1ccc([N+](=O)[O-])cc1)N(C)C	> 100 µM	> 100 µM	> 100 µM	> 100 µM	> 100 µM	> 100 µM	> 100 µM		> 100 µM									
Cc1ccc(Nc2nc3c(s2)C(=O)c2ccccc2C3=O)c(C)c1	30.6 µM	35.2 µM		6.02 µM	22.9 µM	25 µM	45.6 µM	29.4 µM	27.3 µM									
CCOC(=O)NC(=O)c1cn(CCOCCOC(=O)NCCCCCCNC(=O)OCCOCCn2cc(C(=O)NC(=O)OCC)c(=O)[nH]c2=O)c(=O)[nH]c1=O	> 100 µM	> 100 µM	> 100 µM	> 100 µM	> 100 µM	> 100 µM	> 100 µM	> 100 µM	> 100 µM									
CC1=C2C(=O)O[C@@H](c3ccoc3)[C@]2(C)CCC1	> 100 µM	> 100 µM	> 100 µM	> 100 µM	> 100 µM	> 100 µM	> 100 µM	> 100 µM	> 100 µM									
Cc1cccc(NC(=O)C(=O)Cc2nc3ccccc3[nH]c2=O)c1C	> 100 µM	> 100 µM	> 100 µM	> 100 µM	> 100 µM	> 100 µM		> 100 µM	> 100 µM									
Cc1ccc(N(C(=O)CC(=O)NN)C(=O)c2ccccc2Cl)cc1	> 100 µM	> 100 µM	> 100 µM	> 100 µM	> 100 µM	> 100 µM	> 100 µM	> 100 µM	> 100 µM									
CC12CCCC(O)C1CCC1=CC3(CCC12)SCCS3 (stereo not drawn)	> 10 µM	> 10 µM			> 10 µM	> 10 µM	> 10 µM	> 10 µM										> 10 µM
